Measured values: US8017612B2, “Piperazine compound and use thereof as a HCV polymerase inhibitor” (priority 2006, dated 2011)
pIC50: −log10 of the molar value.

How the values were obtained:
[1] = target: T1, HCV polymerase (NS5B) type 1b (Hepatitis C virus genotype 1b, UniProt P26663); assay: Assay of enzyme (HCV polymerase) inhibitory activity, type 1b enzyme; assay type: biochemical, HCV BK strain (type 1b); settings: HCV polymerase inhibitory activity IC50, 1b, type 1b enzyme
T1 construct: a region encoding NS5B (J Virol 1991 March, 65(3), 1105-13, 544 amino acids after deletion of 47 amino acids on the C-terminal); 6xHis (C); made in house; host or cells: Escherichia coli
Procedure, shortened: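 IC50 derived from [3H]UTP incorporation into TCA-insoluble RNA, compared with and without test compound. Reaction (25 °C, 60 min, Tris pH 7.5, 5 mM MgCl2): E. coli-expressed 1b NS5B Δ47 with His tag at 0.5 μg/ml, 5 μg/ml run-off substrate RNA, ATP/GTP/CTP 50 μM, UTP 2 μM.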

[2] = target: T2, HCV polymerase (NS5B) type 1a (Hepatitis C virus genotype 1a, UniProt P26664); assay: Assay of enzyme (HCV polymerase) inhibitory activity, type 1a enzyme; assay type: biochemical, HCV type 1a (cloned from the blood of patients); settings: HCV polymerase inhibitory activity IC50, 1a, type 1a enzyme
T2 construct: made in house; host or cells: Escherichia coli (by the 'similar method' of the 1b enzyme)
Procedure, shortened: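 Reactions ran 60 min at 25° C in 20 mM Tris-HCl pH 7.5, 5 mM MgCl2, 50 mM NaCl, holding genotype 1a NS5B (1.5 μg/ml, Δ47 C-terminus, 6His), substrate RNA 5 μg/ml, UTP 2 μM with tritiated UTP and other NTPs 50 μM. IC50 derived from incorporated radiolabel in filter-trapped RNA relative to uninhibited reaction.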

Compound	pIC50 [1]	pIC50 [2]
O=C(NCc1ccc(OC(F)(F)F)cc1)[C@H]1CN(c2nc3nc(O)nc(O)c3s2)CCN1S(=O)(=O)c1ccc(OC(F)(F)F)cc1 [Example 888, (R)-4-(5,7-dihydroxy-thiazolo[4,5-d]pyrimidin-2-yl)-1-(4-trifluoromethoxy-benzenesulfonyl)-piperazine-2-carboxylic acid 4-trifluoromethoxy-benzylamide]	> 7.00	> 7.00
CCCc1ccc(CNC(=O)[C@H]2CN(c3ccc(C(=O)O)c(F)c3)CCN2S(=O)(=O)c2ccc(CC)cc2)cc1 [Example 889, 4-[(R)-4-(4-ethyl-benzenesulfonyl)-3-(4-propyl-benzylcarbamoyl)-piperazin-1-yl]-2-fluoro-benzoic acid]	< 6.00	< 6.00
CCC(C)(C)c1ccc(CNC(=O)[C@H]2CN(c3nc(Cl)c(C(=O)O)s3)CCN2S(=O)(=O)c2ccc(OC(F)(F)F)cc2)cc1 [Example 890, 4-chloro-2-[(R)-3-[4-(1,1-dimethyl-propyl)-benzylcarbamoyl]-4-(4-trifluoromethoxy-benzenesulfonyl)-piperazin-1-yl]-thiazole-5-carboxylic acid]	> 7.00	> 7.00
CCCc1ccc(CNC(=O)[C@H]2CN(c3nc4c(C(=O)OCC)nncc4s3)CCN2S(=O)(=O)c2ccc(CC)cc2)cc1 [Example 891, 2-[(R)-4-(4-ethyl-benzenesulfonyl)-3-(4-propyl-benzylcarbamoyl)-piperazin-1-yl]-thiazolo[4,5-d]pyridazine-4-carboxylic acid ethyl ester]	> 7.00	> 7.00
CCCc1ccc(CNC(=O)[C@H]2CN(c3nc4c(C(=O)O)nncc4s3)CCN2S(=O)(=O)c2ccc(CC)cc2)cc1 [Example 892, 2-[(R)-4-(4-ethyl-benzenesulfonyl)-3-(4-propyl-benzylcarbamoyl)-piperazin-1-yl]-thiazolo[4,5-d]pyridazine-4-carboxylic acid]	> 7.00	> 7.00
Cc1n[nH]c(=O)c2sc(N3CCN(S(=O)(=O)c4ccc(C(F)(F)F)cc4)[C@@H](C(=O)NCc4ccc(OC(F)(F)F)cc4)C3)nc12 [Example 893, (R)-4-(4-methyl-7-oxo-6,7-dihydro-thiazolo[4,5-d]pyridazin-2-yl)-1-(4-trifluoromethyl-benzenesulfonyl)-piperazine-2-carboxylic acid 4-trifluoromethoxy-benzylamide]	> 7.00	> 7.00
CCC(F)(F)c1ccc(CNC(=O)[C@H]2CN(c3nc4ncncc4s3)CCN2S(=O)(=O)c2ccc(OC(F)(F)F)cc2)cc1 [Example 894, (R)-4-thiazolo[4,5-d]pyrimidin-2-yl-1-(4-trifluoromethoxy-benzenesulfonyl)-piperazine-2-carboxylic acid 4-(1,1-difluoro-propyl)-benzylamide]	> 7.00	> 7.00
CCC(F)(F)c1ccc(CNC(=O)[C@H]2CN(c3nc4nc(Cl)ncc4s3)CCN2S(=O)(=O)c2ccc(OC(F)(F)F)cc2)cc1 [Example 895, (R)-4-(5-chloro-thiazolo[4,5-d]pyrimidin-2-yl)-1-(4-trifluoromethoxy-benzenesulfonyl)-piperazine-2-carboxylic acid 4-(1,1-difluoro-propyl)-benzylamide]	> 7.00	> 7.00
O=C(NCc1ccc(OC(F)(F)F)cc1)[C@H]1CN(c2nc3cnnc(Cl)c3s2)CCN1S(=O)(=O)c1ccc(C(F)(F)F)cc1 [Example 896, (R)-4-(7-chloro-thiazolo[4,5-d]pyridazin-2-yl)-1-(4-trifluoromethyl-benzenesulfonyl)-piperazine-2-carboxylic acid 4-trifluoromethoxy-benzylamide]	> 7.00	> 7.00
O=C(NCc1ccc(OC(F)(F)F)cc1)[C@H]1CN(c2nc3cnncc3s2)CCN1S(=O)(=O)c1ccc(C(F)(F)F)cc1 [Example 897, (R)-4-thiazolo[4,5-d]pyridazin-2-yl-1-(4-trifluoromethyl-benzenesulfonyl)-piperazine-2-carboxylic acid 4-trifluoromethoxy-benzylamide]	> 7.00	> 7.00
O=C(NCc1ccc(OC(F)(F)C(F)F)cc1)[C@H]1CN(c2nc3cn[nH]c(=O)c3s2)CCN1S(=O)(=O)c1ccc(OC(F)(F)F)cc1 [Example 898, (R)-4-(7-oxo-6,7-dihydro-thiazolo[4,5-d]pyridazin-2-yl)-1-(4-trifluoromethoxy-benzenesulfonyl)-piperazine-2-carboxylic acid 4-(1,1,2,2-tetrafluoro-ethoxy)-benzylamide]	> 7.00	> 7.00
O=C(NCC1CC(c2ccccc2)C1)[C@H]1CN(c2nc3cn[nH]c(=O)c3s2)CCN1S(=O)(=O)c1ccc(OC(F)(F)F)cc1 (stereo partly drawn) [Example 899, (R)-4-(7-oxo-6,7-dihydro-thiazolo[4,5-d]pyridazin-2-yl)-1-(4-trifluoromethoxy-benzenesulfonyl)-piperazine-2-carboxylic acid (3-phenyl-cyclobutylmethyl)-amide]	6.00 to 7.00	< 6.00
CCC(F)(F)c1ccc(CNC(=O)[C@H]2CN(c3nc4cn[nH]c(=O)c4s3)CCN2S(=O)(=O)c2ccc(C(F)(F)F)cc2)cc1 [Example 900, (R)-4-(7-oxo-6,7-dihydro-thiazolo[4,5-d]pyridazin-2-yl)-1-(4-trifluoromethyl-benzenesulfonyl)-piperazine-2-carboxylic acid 4-(1,1-difluoro-propyl)-benzylamide]	> 7.00	> 7.00
O=C(NCc1ccc2ccccc2c1)[C@H]1CN(c2nc3cn[nH]c(=O)c3s2)CCN1S(=O)(=O)c1ccc(OC(F)(F)F)cc1 [Example 901, (R)-4-(7-oxo-6,7-dihydro-thiazolo[4,5-d]pyridazin-2-yl)-1-(4-trifluoromethoxy-benzenesulfonyl)-piperazine-2-carboxylic acid (naphthalen-2-ylmethyl)-amide]	> 7.00	> 7.00
CCC(F)(F)c1ccc(CNC(=O)[C@H]2CN(c3nc4nc(Cl)ncc4s3)CCN2S(=O)(=O)c2ccc(C(F)(F)F)cc2)cc1 [Example 902, (R)-4-(5-chloro-thiazolo[4,5-d]pyrimidin-2-yl)-1-(4-trifluoromethyl-benzenesulfonyl)-piperazine-2-carboxylic acid 4-(1,1-difluoro-propyl)-benzylamide]	> 7.00	> 7.00
CCC(F)(F)c1ccc(CNC(=O)[C@H]2CN(c3nc4ncncc4s3)CCN2S(=O)(=O)c2ccc(C(F)(F)F)cc2)cc1 [Example 903, (R)-4-thiazolo[4,5-d]pyrimidin-2-yl-1-(4-trifluoromethyl-benzenesulfonyl)-piperazine-2-carboxylic acid 4-(1,1-difluoro-propyl)-benzylamide]	> 7.00	> 7.00
Cn1ncc2nc(N3CCN(S(=O)(=O)c4ccc(OC(F)(F)F)cc4)[C@@H](C(=O)NCc4ccc(OC(F)(F)F)cc4)C3)sc2c1=O [Example 904, (R)-4-(6-methyl-7-oxo-6,7-dihydro-thiazolo[4,5-d]pyridazin-2-yl)-1-(4-trifluoromethoxy-benzenesulfonyl)-piperazine-2-carboxylic acid 4-trifluoromethoxy-benzylamide]	> 7.00	6.00 to 7.00
COc1ncc2sc(N3CCN(S(=O)(=O)c4ccc(C(F)(F)F)cc4)[C@@H](C(=O)NCc4ccc(OC(F)(F)F)cc4)C3)nc2n1 [Example 905, (R)-4-(5-methoxy-thiazolo[4,5-d]pyrimidin-2-yl)-1-(4-trifluoromethyl-benzenesulfonyl)-piperazine-2-carboxylic acid 4-trifluoromethoxy-benzylamide]	> 7.00	> 7.00
Cc1nnc(Cl)c2sc(N3CCN(S(=O)(=O)c4ccc(OC(F)(F)F)cc4)[C@@H](C(=O)NCc4ccc(OC(F)(F)F)cc4)C3)nc12 [Example 906, (R)-4-(7-chloro-4-methyl-thiazolo[4,5-d]pyridazin-2-yl)-1-(4-trifluoromethoxy-benzenesulfonyl)-piperazine-2-carboxylic acid 4-trifluoromethoxy-benzylamide]	> 7.00	> 7.00
Cc1nc(Cl)c2sc(N3CCN(S(=O)(=O)c4ccc(OC(F)(F)F)cc4)[C@@H](C(=O)NCc4ccc(OC(F)(F)F)cc4)C3)nc2n1 [Example 907, (R)-4-(7-chloro-5-methyl-thiazolo[4,5-d]pyrimidin-2-yl)-1-(4-trifluoromethoxy-benzenesulfonyl)-piperazine-2-carboxylic acid 4-trifluoromethoxy-benzylamide]	> 7.00	> 7.00
Cc1ncc2sc(N3CCN(S(=O)(=O)c4ccc(OC(F)(F)F)cc4)[C@@H](C(=O)NCc4ccc(OC(F)(F)F)cc4)C3)nc2n1 [Example 908, (R)-4-(5-methyl-thiazolo[4,5-d]pyrimidin-2-yl)-1-(4-trifluoromethoxy-benzenesulfonyl)-piperazine-2-carboxylic acid 4-trifluoromethoxy-benzylamide]	> 7.00	> 7.00
CCCc1nc(C)c(CNC(=O)[C@H]2CN(c3nc4cn[nH]c(=O)c4s3)CCN2S(=O)(=O)c2ccc(OC(F)(F)F)cc2)s1 [Example 909, (R)-4-(7-oxo-6,7-dihydro-thiazolo[4,5-d]pyridazin-2-yl)-1-(4-trifluoromethoxy-benzenesulfonyl)-piperazine-2-carboxylic acid (4-methyl-2-propyl-thiazol-5-ylmethyl)-amide]	> 7.00	6.00 to 7.00
